# Measurements from patent publication US7851617B2, “Indole derivatives” (Mitsubishi Tanabe Pharma Corporation, priority 2006, dated 2010).
# pIC50: −log10 of the molar value. Like-named read-outs stand apart in the source and are kept apart here.
# How the values were obtained:
# [1] = system: Sprague-Dawley (SD) rats; assay: Urinary glucose excretion test in rats; type: in vivo, rat; settings: male SD rats, 30 mg/kg by oral gavage, urine collected for 24 hours, daily amount of glucose excreted per individual
# Experimental: Compounds described in the above examples were used for the Urinary glucose excretion test in rats.
# 6-week-old male Sprague-Dawley (SD) rats were housed in individual metabolic cages with free access to food and water from 2 days prior to the experiment. On the morning of the experiment, rats were administered vehicle (0.2% carboxymethyl cellulose solution containing 0.2% Tween80) or test compounds (30 mg/kg) by oral gavage at a volume of 10 ml/kg. Then, urine of the rat was collected for 24 hours, and the urine volume was measured. Subsequently, the glucose concentration in urine was quantified using the enzymatic assay kit and the daily amount of glucose excreted in urine per individual was calculated.
# [2] = molecular target: T1, human SGLT2 (Homo sapiens, UniProt P31639); assay: Assay for SGLT2 inhibition (14C-AMG uptake); type: cell-based
# T1 construct: expressed in transfected cells; host or cells: CHOK1 cells (selected with Geneticin)
# T1 sequence (P31639 1-672): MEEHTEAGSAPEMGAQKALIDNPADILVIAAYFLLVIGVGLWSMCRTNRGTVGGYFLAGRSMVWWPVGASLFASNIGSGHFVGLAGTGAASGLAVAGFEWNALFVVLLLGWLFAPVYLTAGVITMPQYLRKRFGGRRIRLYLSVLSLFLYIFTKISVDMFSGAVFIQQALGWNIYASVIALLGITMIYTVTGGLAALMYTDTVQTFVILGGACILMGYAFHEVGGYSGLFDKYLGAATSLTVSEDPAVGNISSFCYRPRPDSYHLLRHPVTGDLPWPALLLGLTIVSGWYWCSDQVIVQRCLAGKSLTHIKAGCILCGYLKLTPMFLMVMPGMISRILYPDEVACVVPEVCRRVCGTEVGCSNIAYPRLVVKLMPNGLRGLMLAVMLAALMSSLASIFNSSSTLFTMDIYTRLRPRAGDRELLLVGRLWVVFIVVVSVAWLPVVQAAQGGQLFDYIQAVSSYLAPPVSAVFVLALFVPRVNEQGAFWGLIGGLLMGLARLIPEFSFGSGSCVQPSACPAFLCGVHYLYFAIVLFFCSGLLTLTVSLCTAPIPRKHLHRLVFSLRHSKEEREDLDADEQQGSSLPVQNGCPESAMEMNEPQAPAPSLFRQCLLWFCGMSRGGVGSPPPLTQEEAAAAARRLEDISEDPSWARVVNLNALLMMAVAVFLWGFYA
# Experimental: Compounds described in the above examples were used for the SGLT2 inhibition assay. CHOK1 cells expressing human SGLT2 were seeded in 24-well plates at a density of 400,000 cells/well in F-12 nutrient mixture (Ham's F-12) containing 10% fetal bovine serum, 400 μg/ml Geneticin, 50 units/ml sodium penicillin G (Gibco-BRL) and 50 μg/ml streptomycin sulfate. After 2 days of culture at 37° C. in a humidified atmosphere containing 5% CO2, cells were washed once with the assay buffer (137 mM NaCl, 5 mM KCl, 1 mM CaCl2, 1 mM MgCl2, 50 mM Hepes, and 20 mM Tris, pH 7.4) and incubated with 250 μl of the buffer containing test compounds for 10 min at 37° C. Test compounds were dissolved in DMSO. The final concentration of DMSO was 0.5%. The transport reaction was initiated by addition of 50 μl [^14C]-methyl-α-D-glucopyranoside (^14C-AMG) solution (final concentration, 0.5 mM). After incubation for 2 hours at 37° C., the uptake was stopped by aspiration of the incubation mixture, the cells were washed three times with ice-cold PBS. Then, cells were solubilized with 0.3 N NaOH and aliquots were taken for determination of radioactivity by a liquid scintillation counter. Nonspecific AMG uptake was defined as that which occurred in the presence of 100 μM of phlorizin, a specific inhibitor of sodium-dependent glucose cotransporter. Specific uptake was normalized for the protein concentrations measured by the method of Bradford. The 50% inhibitory concentration (IC50) values were calculated from dose-response curves by least square method.
# [3] = CHOK1 cells expressing human SGLT2, 14C-AMG uptake, 2 hours at 37° C., read-out: IC50
Structure (SMILES),Urinary glucose [1],"pIC50 [2, 3]",pIC50 [2]
"OC[C@H]1O[C@@H](n2cc(Cc3ccc(C4CC4)cc3)c3c(F)cccc32)[C@H](O)[C@@H](O)[C@@H]1O [Example 1, 3-(4-Cyclopropylphenylmethyl)-4-fluoro-1-(β-D-gluco-pyranosyl)indole]",B (2400 mg>B≧2000 mg),8.72,–
"OC[C@H]1O[C@@H](n2cc(Cc3ccc(C4CC4)cc3)c3c(Cl)cc(F)cc32)[C@H](O)[C@@H](O)[C@@H]1O [Example 4, 4-Chloro-3-(4-cyclopropylphenylmethyl)-6-fluoro-1-(β-D-gluco-pyranosyl) indole]",C (2000 mg>C),8.44,–
"OC[C@H]1O[C@@H](n2cc(Cc3ccc(C4CC4)cc3)c3c(F)cc(F)cc32)[C@H](O)[C@@H](O)[C@@H]1O [Example 3, 3-(4-Cyclopropylphenylmethyl)-4,6-difluoro-1-(β-D-gluco-pyranosyl) indole]",B (2400 mg>B≧2000 mg),8.55,–
"OC[C@H]1O[C@@H](n2cc(Cc3ccc(C4CC4)cc3)c3c(Cl)cccc32)[C@H](O)[C@@H](O)[C@@H]1O [Example 2, 4-Chloro-3-(4-cyclopropylphenyl-methyl)-1-(β-D-glucopyranosyl)indole]",A (A≧2400 mg),–,8.64
